{
  "source": "PubChem BioAssay AID256",
  "about": "(DTP/NCI, 2004)",
  "tested_on": "CD2F1 mice, L1210 leukemia ip, survival T/C",
  "test": "NCI In Vivo Anticancer Drug Screen. Data for tumor model L1210 Leukemia (intraperitoneal) in CD2F1 (CDF1) mice",
  "conditions": "higher = longer survival",
  "in_short": "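Transplantable tumor in mice; compound-treated vs vehicle-treated groups. Read-out = treated/control ratio of the measured endpoint.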",
  "key": {"[1]": {"conditions": "endpoint: mean survival time, dose: 100.0 mg/kg/injection, schedule: Q01DX001 (ip), vehicle: saline with Tween-80"}, "[2]": {"conditions": "endpoint: mean survival time, dose: 400.0 mg/kg/injection, schedule: Q01DX001 (ip), vehicle: saline with Tween-80"}},
  "note": "Where “and” joins values, the source holds several entries; their conditions need not be identical. Identical values can stand only once. Toxic doses and inconclusive results are not listed.",
  "data": [
    {"smiles": "NCC1CCC(C(=O)O)CC1", "note": "(centres undefined)", "values": [
      {"measurement": "T/C", "setting": "endpoint: median survival time, dose: 12.5 mg/kg/injection, schedule: Q01DX009 (ip), vehicle: saline with Tween-80", "result": "101 % of control"},
      {"measurement": "T/C", "setting": "endpoint: median survival time, dose: 25.0 mg/kg/injection, schedule: Q01DX009 (ip), vehicle: saline with Tween-80", "result": "101 % of control"},
      {"measurement": "T/C", "setting": "endpoint: median survival time, dose: 50.0 mg/kg/injection, schedule: Q01DX005 (ip), vehicle: saline with Tween-80", "result": "110 % of control"},
      {"measurement": "T/C", "setting": "endpoint: median survival time, dose: 50.0 mg/kg/injection, schedule: Q01DX009 (ip), vehicle: saline with Tween-80", "result": "100 % of control"},
      {"measurement": "T/C", "setting": "endpoint: median survival time, dose: 100.0 mg/kg/injection, schedule: Q01DX005 (ip), vehicle: saline with Tween-80", "result": "104 % of control"},
      {"measurement": "T/C", "setting": "endpoint: median survival time, dose: 100.0 mg/kg/injection, schedule: Q01DX009 (ip), vehicle: saline with Tween-80", "result": "101 % of control"},
      {"measurement": "T/C", "setting": "endpoint: median survival time, dose: 200.0 mg/kg/injection, schedule: Q01DX005 (ip), vehicle: saline with Tween-80", "result": "97 % of control"},
      {"measurement": "T/C", "setting": "endpoint: median survival time, dose: 200.0 mg/kg/injection, schedule: Q01DX009 (ip), vehicle: saline with Tween-80", "result": "100 % of control"},
      {"measurement": "T/C", "setting": "endpoint: median survival time, dose: 400.0 mg/kg/injection, schedule: Q01DX005 (ip), vehicle: saline with Tween-80", "result": "105 % of control"},
      {"measurement": "T/C", "setting": "endpoint: median survival time, dose: 400.0 mg/kg/injection, schedule: Q01DX009 (ip), vehicle: saline with Tween-80", "result": "100 % of control"},
      {"measurement": "T/C", "setting": "endpoint: median survival time, dose: 800.0 mg/kg/injection, schedule: Q01DX005 (ip), vehicle: saline with Tween-80", "result": "97 % of control"}
    ]},
    {"smiles": "CC(C)CC([N+](C)(C)C)P(=O)([O-])O", "note": "(centres undefined)", "values": [
      {"measurement": "T/C", "setting": "endpoint: mean survival time, dose: 100.0 mg/kg/injection, schedule: Q04DX003 (ip), vehicle: saline", "result": "101 % of control"},
      {"measurement": "T/C", "setting": "endpoint: mean survival time, dose: 200.0 mg/kg/injection, schedule: Q04DX003 (ip), vehicle: saline", "result": "95 % of control"},
      {"measurement": "T/C", "setting": "endpoint: mean survival time, dose: 400.0 mg/kg/injection, schedule: Q04DX003 (ip), vehicle: saline", "result": "98 % of control"}
    ]},
    {"smiles": "CC(C)CN1CCCC(=O)C(O)CCC1", "note": "(centres undefined)", "values": [
      {"measurement": "T/C", "setting": "endpoint: mean survival time, dose: 25.0 mg/kg/injection, schedule: Q01DX009 (ip), vehicle: acetone", "result": "98 % of control"},
      {"measurement": "T/C", "setting": "endpoint: mean survival time, dose: 50.0 mg/kg/injection, schedule: Q01DX009 (ip), vehicle: acetone", "result": "93 % of control"}
    ]},
    {"smiles": "CC(C)CCCC(C)[C@@H]1CCC2[C@H]3CCC4(C)CC5=C(C[C@@]4(C)C3CC[C@]21C)C(=O)CC1C2CCCCC2CCN51", "note": "(some centres undefined)", "values": [
      {"measurement": "T/C", "setting": "[1]", "result": "102 % of control"},
      {"measurement": "T/C", "setting": "endpoint: mean survival time, dose: 200.0 mg/kg/injection, schedule: Q01DX001 (ip), vehicle: saline with Tween-80", "result": "90 % of control"},
      {"measurement": "T/C", "setting": "[2]", "result": "90 % of control"}
    ]},
    {"smiles": "CNC(=O)OCc1c(COC(=O)NC)c(-c2ccc(Cl)c(Cl)c2)n2c1Cc1ccccc1C2", "values": [
      {"measurement": "T/C", "setting": "endpoint: median survival time, dose: 12.5 mg/kg/injection, schedule: Q01DX009 (ip), vehicle: distilled water + Tween-80", "result": "122 % of control"},
      {"measurement": "T/C", "setting": "endpoint: median survival time, dose: 25.0 mg/kg/injection, schedule: Q01DX009 (ip), vehicle: distilled water + Tween-80", "result": "122 % of control"},
      {"measurement": "T/C", "setting": "endpoint: median survival time, dose: 50.0 mg/kg/injection, schedule: Q01DX009 (ip), vehicle: distilled water + Tween-80", "result": "157 % of control"},
      {"measurement": "T/C", "setting": "endpoint: median survival time, dose: 100.0 mg/kg/injection, schedule: Q01DX009 (ip), vehicle: distilled water + Tween-80", "result": "164 % of control and 173 % of control"},
      {"measurement": "T/C", "setting": "endpoint: median survival time, dose: 200.0 mg/kg/injection, schedule: Q01DX009 (ip), vehicle: distilled water + Tween-80", "result": "124 % of control"}
    ]},
    {"smiles": "O=c1[nH]c(=S)[nH]c2ncn(C3OC(CO)C(O)C3O)c12", "note": "(centres undefined)", "values": [
      {"measurement": "T/C", "setting": "endpoint: mean survival time, dose: 100.0 mg/kg/injection, schedule: Q01DX001 (ip), vehicle: saline", "result": "102 % of control"},
      {"measurement": "T/C", "setting": "endpoint: mean survival time, dose: 200.0 mg/kg/injection, schedule: Q01DX001 (ip), vehicle: saline", "result": "100 % of control"},
      {"measurement": "T/C", "setting": "endpoint: mean survival time, dose: 400.0 mg/kg/injection, schedule: Q01DX001 (ip), vehicle: saline", "result": "102 % of control"}
    ]},
    {"smiles": "CN(C)c1ccc2c(NCCCCCCNc3ccnc4cc(N(C)C)ccc34)ccnc2c1", "values": [
      {"measurement": "T/C", "setting": "endpoint: median survival time, dose: 1.56 mg/kg/injection, schedule: Q01DX009 (ip), vehicle: distilled water + Tween-80 + alcohol", "result": "105 % of control"},
      {"measurement": "T/C", "setting": "endpoint: median survival time, dose: 3.12 mg/kg/injection, schedule: Q01DX009 (ip), vehicle: distilled water + Tween-80 + alcohol", "result": "104 % of control"},
      {"measurement": "T/C", "setting": "endpoint: median survival time, dose: 6.25 mg/kg/injection, schedule: Q01DX009 (ip), vehicle: distilled water + Tween-80 + alcohol", "result": "111 % of control"}
    ]},
    {"smiles": "CCC(CNCCCC(=O)O)(C(=O)O)C(=O)O", "values": [
      {"measurement": "T/C", "setting": "endpoint: mean survival time, dose: 25.0 mg/kg/injection, schedule: Q04DX002 (ip), vehicle: saline with Tween-80", "result": "98 % of control"},
      {"measurement": "T/C", "setting": "endpoint: mean survival time, dose: 50.0 mg/kg/injection, schedule: Q04DX002 (ip), vehicle: saline with Tween-80", "result": "94 % of control"},
      {"measurement": "T/C", "setting": "endpoint: mean survival time, dose: 100.0 mg/kg/injection, schedule: Q04DX002 (ip), vehicle: saline with Tween-80", "result": "102 % of control"}
    ]},
    {"smiles": "CC(=O)OC1CCC2(C)C(=CCC3C4CC(C=O)=C(Cl)NC4(C)CCC32)C1", "note": "(centres undefined)", "values": [
      {"measurement": "T/C", "setting": "endpoint: mean survival time, dose: 25.0 mg/kg/injection, schedule: Q01DX001 (ip), vehicle: saline with Tween-80", "result": "98 % of control"},
      {"measurement": "T/C", "setting": "endpoint: mean survival time, dose: 50.0 mg/kg/injection, schedule: Q01DX001 (ip), vehicle: saline with Tween-80", "result": "95 % of control"},
      {"measurement": "T/C", "setting": "[1]", "result": "92 % of control and 101 % of control"},
      {"measurement": "T/C", "setting": "[2]", "result": "87 % of control"}
    ]},
    {"smiles": "O=[N+]([O-])/C=C/c1ccccc1", "values": [
      {"measurement": "T/C", "setting": "endpoint: mean survival time, dose: 20.0 mg/kg/injection, schedule: Q01DX009 (ip), vehicle: saline with Tween-80", "result": "106 % of control"},
      {"measurement": "T/C", "setting": "endpoint: mean survival time, dose: 20.0 mg/kg/injection, schedule: Q04DX003 (ip), vehicle: saline with Tween-80", "result": "102 % of control"},
      {"measurement": "T/C", "setting": "endpoint: mean survival time, dose: 40.0 mg/kg/injection, schedule: Q04DX003 (ip), vehicle: saline with Tween-80", "result": "96 % of control"},
      {"measurement": "T/C", "setting": "endpoint: mean survival time, dose: 80.0 mg/kg/injection, schedule: Q04DX003 (ip), vehicle: saline with Tween-80", "result": "94 % of control"}
    ]},
    {"smiles": "CC(=O)Nc1ccc(C#[N+][S-])cc1", "values": [
      {"measurement": "T/C", "setting": "endpoint: mean survival time, dose: 3.13 mg/kg/injection, schedule: Q01DX001 (ip), vehicle: Klucel (hydroxypropylcellulose) (HPC)", "result": "104 % of control"},
      {"measurement": "T/C", "setting": "endpoint: mean survival time, dose: 6.25 mg/kg/injection, schedule: Q01DX001 (ip), vehicle: Klucel (hydroxypropylcellulose) (HPC)", "result": "97 % of control"},
      {"measurement": "T/C", "setting": "endpoint: mean survival time, dose: 12.5 mg/kg/injection, schedule: Q01DX001 (ip), vehicle: Klucel (hydroxypropylcellulose) (HPC)", "result": "93 % of control"}
    ]}
  ]
}
